What was measured:
TRE3G-GFP reporter gene = TRE3G-GFP reporter gene activation in HCT116, dCas9 + MS2-FKBP*x2 (F36V) system, flow cytometry; format: cell-based, human; parameters: fold change, GFP: reference not given here; settings: for fold change, GFP (TRE3G gRNA vs NT gRNA): FIG. 1C, 48 hours; for fold change, GFP (TRE3G gRNA vs NT gRNA) / fold change, GFP: 10 nM; for % repress, GFP (no AP1867 vs AP1867 added): FIG. 1D; for fold change, GFP: FIG. 5A
CXCR4 = CXCR4 mRNA activation in HCT116 stably expressing dCas9 and MS2-FKBP*x2, qRT-PCR; format: cell-based, human; settings: FIG. 2C; 5 nM; 48 hrs
Protocol: To further explore the activation potential of the SLF*-CEMa, their ability to target endogenous genes was evaluated (FIGS. 2A and 2B). Lentivirus was used to establish a stable HCT116 cell line expressing dCas9 and MS2-FKBP*x2 constructs, selecting for cells with antibiotic resistance. […] All CEMs were screened for their ability to activate the CXCR4 gene at 5 nM (FIG. 2C). RNA extraction and quantitative RT-PCR (qRT-PCR) were performed after 48 hours of CEM treatment.
To determine the optimal treatment concentration of the SLF*-CEMa molecules in this context, HCT116 cells were treated with 1 nM, 5 nM, 25 nM, and 50 nM of CEM203, CEM207, or CEM87. […] After 48 hours, RNA extraction followed by qRT-PCR was performed to evaluate the change in mRNA expression of CXCR4 (FIG. 2D). […] To directly compare this induced activation to other CRISPR-Cas9-based epigenetic activators, dCas9-VPR and dCas9-p300 constructs were virally infected into HCT116 cells and CXCR4 activation assessed in a similar fashion (FIGS. 2A and 2B).
To determine the time at which SLF*-CEMa most effectively induces gene activation, CXCR4 gene expression changes over time were investigated in dCas9 and MS2-FKBP*x2 stably infected HCT116 cells. Cells were treated with either vehicle, […] (FIG. 3A). RNA extraction and qRT-PCR were performed at 12, 24, 48, 72, and 96 hrs time points (FIG. 3B).
To investigate if endogenous gene activation triggered by the SLF*-CEMa compounds is also reversible, HCT116 cells were treated with CEM203 (50 nM) or CEM207 (25 nM) for 24 hours after transfecting CXCR4 gRNA, and then the CEMs were removed by media exchange at various time points. […] Likewise, it was investigated whether treatment with excess AP1867 could further reverse gene activation, potentially in a more robust fashion than with washout alone if there is any remaining intracellular SLF*-CEMa. To test this, after 24 hours of SLF*-CEMa treatment, a media exchange containing 20 μM AP1867 was performed (FIGS. 3C and 3D).
RNA extraction and qRT-PCR. All RNA extraction experiments were conducted in 12-well plate format. Culturing medium was removed, and cells were washed with 1×PBS, following with 0.05% trypsin to disassociate. After being quenched by medium and centrifuged, cells were washed with 1×PBS, and the RNA extraction was performed by using RNeasy Plus Mini kit (Qiagen, 74134). RT-qPCR was conducted by using RNA-to CT 1-step kit (Thermo Fisher Scientific, 4389986). The primer sets used in quantifying each gene can be found in Table 4.

Row | SMILES | fold change, GFP (TRE3G gRNA vs NT gRNA) (TRE3G-GFP reporter gene) | % repress, GFP (no AP1867 vs AP1867 added) (TRE3G-GFP reporter gene; TRE3G gRNA, CEM207 5 nM + AP1867 5 μM) | % repress, GFP (no AP1867 vs AP1867 added) (TRE3G-GFP reporter gene; TRE3G gRNA, CEM207 5 nM + AP1867 10 μM) | % repress, GFP (no AP1867 vs AP1867 added) (TRE3G-GFP reporter gene; TRE3G gRNA, CEM207 5 nM + AP1867 20 μM) | fold change, GFP (no AP1867 vs AP1867 added) (TRE3G-GFP reporter gene; FIG. 5B, TRE3G gRNA, CEM207 5 nM + AP1867 500 nM, 48 hrs) | fold change, CXCR4 mRNA (Treated vs Non-Treated) (CXCR4) | fold change, GFP (TRE3G-GFP reporter gene; NT gRNA, 48 hrs) | fold change, GFP (TRE3G-GFP reporter gene; TRE3G gRNA, 48 hrs)
1 | CC[C@H](C(=O)N1CCCC[C@H]1C(=O)O[C@H](CCc1ccc(OC)c(OC)c1)c1cccc(OCC(=O)O)c1)c1cc(OC)c(OC)c(OC)c1 [AP1867, reference compound] | 1.4 fold | 45% | 84% | 91% | No change in GFP expression |  |  | 
2 | CC[C@H](C(=O)N1CCCC[C@H]1C(=O)O[C@H](CCc1ccc(OC)c(OC)c1)c1cccc(OCC(=O)NCCOCCOCCNC(=O)C[C@@H]2N=C(c3ccc(Cl)cc3)c3cc(OC)ccc3-n3c(C)nnc32)c1)c1cc(OC)c(OC)c(OC)c1 [CEM201, (1R)-1-(3-((14-((4S)-6-(4-Chlorophenyl)-8-methoxy-1-methyl-4H-benzo[f][1,2,4]triazolo[4,3-a][1,4]diazepin-4-yl)-2,13-dioxo-6,9-dioxa-3,12-diazatetradecyl)oxy)phenyl)-3-(3,4-dimethoxyphenyl) propyl (2S)-1-((S)-2-(3,4,5-trimethoxyphenyl)butanoyl) piperidine-2-carboxylate] |  |  |  |  |  | 5.8 fold | 0.6 fold | 8.2 fold
3 | CC[C@H](C(=O)N1CCCC[C@H]1C(=O)O[C@H](CCc1ccc(OC)c(OC)c1)c1cccc(OCC(=O)NCCOCCOCCOCCOCCOCCNC(=O)C[C@@H]2N=C(c3ccc(Cl)cc3)c3cc(OC)ccc3-n3c(C)nnc32)c1)c1cc(OC)c(OC)c(OC)c1 [CEM204, (1R)-1-(3-((23-((4S)-6-(4-Chlorophenyl)-8-methoxy-1-methyl-4H-benzo[f][1,2,4]triazolo[4,3-a][1,4]diazepin-4-yl)-2,22-dioxo-6,9,12,15,18-pentaoxa-3,21-diazatricosyl)oxy)phenyl)-3-(3,4-dimethoxyphenyl) propyl (2S)-1-((S)-2-(3,4,5-trimethoxyphenyl)butanoyl) piperidine-2-carboxylate] |  |  |  |  |  | 7.2 fold | 0.3 fold | 5.7 fold
4 | CC[C@H](C(=O)N1CCCC[C@H]1C(=O)O[C@H](CCc1ccc(OC)c(OC)c1)c1cccc(OCC(=O)NCCOCCOCCOCCOCCOCCOCCNC(=O)C[C@@H]2N=C(c3ccc(Cl)cc3)c3cc(OC)ccc3-n3c(C)nnc32)c1)c1cc(OC)c(OC)c(OC)c1 [CEM205, (1R)-1-(3-((26-((4S)-6-(4-Chlorophenyl)-8-methoxy-1-methyl-4H-benzo[f][1,2,4]triazolo[4,3-a][1,4]diazepin-4-yl)-2,25-dioxo-6,9,12,15,18,21-hexaoxa-3,24-diazahexacosyl)oxy)phenyl)-3-(3,4-dimethoxyphenyl) propyl (2S)-1-((S)-2-(3,4,5-trimethoxyphenyl)butanoyl) piperidine-2-carboxylate] |  |  |  |  |  | 8.8 fold | 0.4 fold | 6.9 fold
5 | CC[C@H](C(=O)N1CCCC[C@H]1C(=O)O[C@H](CCc1ccc(OC)c(OC)c1)c1cccc(OCC(=O)NCCOCCOCCOCCOCCOCCOCCOCCNC(=O)C[C@@H]2N=C(c3ccc(Cl)cc3)c3cc(OC)ccc3-n3c(C)nnc32)c1)c1cc(OC)c(OC)c(OC)c1 [CEM206, (1R)-1-(3-((29-((4S)-6-(4-Chlorophenyl)-8-methoxy-1-methyl-4H-benzo[f][1,2,4]triazolo[4,3-a][1,4]diazepin-4-yl)-2,28-dioxo-6,9,12,15,18,21,24-heptaoxa-3,27-diazanonacosyl)oxy)phenyl)-3-(3,4-dimethoxyphenyl) propyl (2S)-1-((S)-2-(3,4,5-trimethoxyphenyl)butanoyl) piperidine-2-carboxylate] |  |  |  |  |  | 13.9 fold | 0.3 fold | 8.5 fold
6 | CC[C@H](C(=O)N1CCCC[C@H]1C(=O)O[C@H](CCc1ccc(OC)c(OC)c1)c1cccc(OCC(=O)NCCOCCOCCOCCNC(=O)C[C@@H]2N=C(c3ccc(Cl)cc3)c3c(sc(C)c3C)-n3c(C)nnc32)c1)c1cc(OC)c(OC)c(OC)c1 [CEM208, (R)-1-(3-((17-((S)-4-(4-Chlorophenyl)-2,3,9-trimethyl-6H-thieno[3,2-f][1,2,4]triazolo[4,3-a][1,4]diazepin-6-yl)-2,16-dioxo-6,9,12-trioxa-3,15-diazaheptadecyl)oxy)phenyl)-3-(3,4-dimethoxyphenyl) propyl(S)-1-((S)-2-(3,4,5-trimethoxyphenyl)butanoyl) piperidine-2-carboxylate] |  |  |  |  |  | 11.5 fold | 0.4 fold | 8.1 fold
7 | CC[C@H](C(=O)N1CCCC[C@H]1C(=O)O[C@H](CCc1ccc(OC)c(OC)c1)c1cccc(OCC(=O)NCCOCCOCCOCCOCCNC(=O)C[C@@H]2N=C(c3ccc(Cl)cc3)c3c(sc(C)c3C)-n3c(C)nnc32)c1)c1cc(OC)c(OC)c(OC)c1 [CEM209, (R)-1-(3-((20-((S)-4-(4-Chlorophenyl)-2,3,9-trimethyl-6H-thieno[3,2-f][1,2,4]triazolo[4,3-a][1,4]diazepin-6-yl)-2,19-dioxo-6,9,12,15-tetraoxa-3,18-diazaicosyl)oxy)phenyl)-3-(3,4-dimethoxyphenyl) propyl(S)-1-((S)-2-(3,4,5-trimethoxyphenyl)butanoyl) piperidine-2-carboxylate] |  |  |  |  |  | 11.1 fold | 0.5 fold | 4.3 fold
8 | CC[C@H](C(=O)N1CCCC[C@H]1C(=O)O[C@H](CCc1ccc(OC)c(OC)c1)c1cccc(OCC(=O)NCCOCCOCCOCCOCCOCCNC(=O)C[C@@H]2N=C(c3ccc(Cl)cc3)c3c(sc(C)c3C)-n3c(C)nnc32)c1)c1cc(OC)c(OC)c(OC)c1 [CEM210, (R)-1-(3-((23-((S)-4-(4-Chlorophenyl)-2,3,9-trimethyl-6H-thieno[3,2-f][1,2,4]triazolo[4,3-a][1,4]diazepin-6-yl)-2,22-dioxo-6,9,12,15,18-pentaoxa-3,21-diazatricosyl)oxy)phenyl)-3-(3,4-dimethoxyphenyl) propyl(S)-1-((S)-2-(3,4,5-trimethoxyphenyl)butanoyl) piperidine-2-carboxylate] |  |  |  |  |  | 12.0 fold | 0.4 fold | 8.5 fold
9 | CC[C@H](C(=O)N1CCCC[C@H]1C(=O)O[C@H](CCc1ccc(OC)c(OC)c1)c1cccc(OCC(=O)NCCOCCOCCOCCOCCOCCOCCNC(=O)C[C@@H]2N=C(c3ccc(Cl)cc3)c3c(sc(C)c3C)-n3c(C)nnc32)c1)c1cc(OC)c(OC)c(OC)c1 [CEM211, (R)-1-(3-((26-((S)-4-(4-Chlorophenyl)-2,3,9-trimethyl-6H-thieno[3,2-f][1,2,4]triazolo[4,3-a][1,4]diazepin-6-yl)-2,25-dioxo-6,9,12,15,18,21-hexaoxa-3,24-diazahexacosyl)oxy)phenyl)-3-(3,4-dimethoxyphenyl) propyl(S)-1-((S)-2-(3,4,5-trimethoxyphenyl)butanoyl) piperidine-2-carboxylate] |  |  |  |  |  | 8.5 fold | 0.4 fold | 7.8 fold
10 | CC[C@H](C(=O)N1CCCC[C@H]1C(=O)O[C@H](CCc1ccc(OC)c(OC)c1)c1cccc(OCC(=O)NCCOCCOCCOCCOCCOCCOCCOCCNC(=O)C[C@@H]2N=C(c3ccc(Cl)cc3)c3c(sc(C)c3C)-n3c(C)nnc32)c1)c1cc(OC)c(OC)c(OC)c1 [CEM212, (R)-1-(3-((29-((S)-4-(4-Chlorophenyl)-2,3,9-trimethyl-6H-thieno[3,2-f][1,2,4]triazolo[4,3-a][1,4]diazepin-6-yl)-2,28-dioxo-6,9,12,15,18,21,24-heptaoxa-3,27-diazanonacosyl)oxy)phenyl)-3-(3,4-dimethoxyphenyl) propyl(S)-1-((S)-2-(3,4,5-trimethoxyphenyl)butanoyl) piperidine-2-carboxylate] |  |  |  |  |  | 12.6 fold | 0.4 fold | 6.1 fold
11 | CCNC(=O)C[C@@H]1N=C(c2ccc(Cl)cc2)c2cc(OC)ccc2-n2c(C)nnc21 [iBET762, reference compound] | 2.4 fold |  |  |  |  |  |  | 

From patent publication US20250177566A1, “USE OF CHEMICAL EPIGENETIC MODIFIERS TO MODULATE GENE EXPRESSION” (The University of North Carolina at Chapel Hill, priority 2022, published 2025)
